Data on 2 compounds can be found in EPA's ToxRefDB 2.

SMILES strings stand for the structures.

In data set [1] the test system is rat. Conditions: Prenatal developmental toxicity study, sprague dawley, Oral, Gavage/Intubation, dose end: 17 GD.
Data set [2] deals with rat. Particulars: Acute oral toxicity, wistar, Gavage/Intubation, dose end: 7 day, group: systemic, systemic / clinical chemistry / calcium / calcium + systemic / urinalysis / calcium / calcium.
Data set [3] relates to rat. Conditions: Prenatal developmental toxicity study, fischer, Oral, Gavage/Intubation, dose end: 10 GD.
In another data set the test system is rabbit. Conditions: Prenatal developmental toxicity study, new zealand white, Oral, Gavage/Intubation, dose end: 19 GD.
Data set [4] deals with rat. Conditions: Prenatal developmental toxicity study, wistar, Oral, Gavage/Intubation, dose end: 10 GD.
Data set [5] concerns rat. Particulars: Prenatal developmental toxicity study, sprague dawley, Oral, Gavage/Intubation, dose end: 20 GD.
The subject of the next data set is mouse. Conditions: Subchronic oral toxicity in rodents, other, Gavage/Intubation, dose end: 13 week, group: systemic, systemic / clinical chemistry / alanine aminotransferase (alt/sgpt) / alanine aminotransferase (alt/sgpt) + systemic / clinical chemistry / ….
Setting [6] is: group: developmental, developmental / developmental malformation / bone / [other] + developmental / developmental malformation / bone / kinked + developmental / ….
Setting [7] is: group: developmental, developmental / developmental malformation / heart / [other] + developmental / developmental malformation / ureter / convoluted.
Where [8] appears, read: group: maternal, reproductive / reproductive performance / postimplantation loss / postimplantation loss + reproductive / reproductive performance / ….
Where [9] appears, read: group: maternal, systemic / organ weight / uterus / nos + reproductive / offspring survival early / live fetuses / live fetuses.
[10] abbreviates: group: developmental, developmental / developmental malformation / bone / [other] + developmental / developmental malformation / general / crown-rump length + ….
Where [11] appears, read: group: maternal, reproductive / reproductive performance / resorptions / resorptions + reproductive / offspring survival early / dead fetuses / dead fetuses….
Setting [12] is: group: developmental, systemic / in life observation / body weight / fetal weight.
Setting [13] is: group: maternal, reproductive / reproductive performance / aborted / aborted + systemic / in life observation / body weight / body weight + systemic / in ….
Setting [14] is: group: developmental, developmental / developmental malformation / bone / [other] + developmental / developmental malformation / bone / incomplete ossification + ….
[15] abbreviates: group: maternal, reproductive / reproductive performance / resorptions / resorptions + reproductive / offspring survival early / dead fetuses / dead fetuses.
Where [16] appears, read: group: developmental, developmental / developmental malformation / bone / [other] + developmental / developmental malformation / bone / fused + developmental / ….
Setting [17] is: group: maternal, reproductive / reproductive performance / postimplantation loss / postimplantation loss + systemic / in life observation / body weight / ….
The mark [18] stands for this setting: group: maternal, systemic / in life observation / body weight / body weight gain.

On to `CC(=O)Oc1ccccc1C(=O)O` [Aspirin], for which the LOAEL – broadly, the lowest tested level that showed an adverse finding – is more than 1000 mg/kg/day in the data set on rat [1] (setting [6]); more than 1000 mg/kg/day in the data set with rat [1] (setting [8]); more than 100 mg/kg/day in the data set on rat [2]; more than 625 mg/kg/day in the data set on rat [3] (setting [10]); more than 625 mg/kg/day with rat [3] (setting [11]); more than 350 mg/kg/day in the data set with rabbit (setting [12]). For the same compound, the LOAEL in the data set on rabbit (setting [13]) is more than 350 mg/kg/day; in the data set on rat [4] (setting [14]), more than 500 mg/kg/day; in the data set on rat [4] (setting [15]) it was more than 500 mg/kg/day. Further, the NOAEL (as a rule, the highest dose or exposure tested at which no adverse effect was seen) with rat [1] (setting [6]) is not below 1000 mg/kg/day; in the data set with rat [1] (setting [8]), not below 1000 mg/kg/day; with rat [2], not below 100 mg/kg/day; in the data set with rat [3] (setting [10]) it was not below 625 mg/kg/day; in the data set on rat [3] (setting [11]), not below 625 mg/kg/day; in the data set with rabbit (setting [12]), not below 350 mg/kg/day. Moreover, the NOAEL in the data set with rabbit (setting [13]) was not below 350 mg/kg/day; in the data set on rat [4] (setting [14]), not below 500 mg/kg/day; with rat [4] (setting [15]), not below 500 mg/kg/day. For the same compound, the LEL in the data set on rat [1] (setting [7]) was determined as 50 mg/kg/day; in the data set with rat [1] (setting [9]), 50 mg/kg/day; with rat [2], 100 mg/kg/day; in the data set with rat [3] (setting [10]), 500 mg/kg/day; in the data set with rat [3] (setting [11]), 625 mg/kg/day; in the data set with rabbit (setting [12]), 350 mg/kg/day. Further, the LEL in the data set on rabbit (group: maternal, systemic / in life observation / body weight / body weight gain + systemic / in life observation / clinical signs / defecation (diarrhea) + …) was determined as 250 mg/kg/day; in the data set on rat [4] (setting [14]), 500 mg/kg/day; in the data set with rat [4] (setting [15]) it was 500 mg/kg/day. Further, the NEL with rat [1] (setting [7]) is less than 50 mg/kg/day; in the data set on rat [1] (setting [9]) it was less than 50 mg/kg/day; in the data set on rat [2], less than 100 mg/kg/day; in the data set on rat [3] (setting [10]), less than 500 mg/kg/day; in the data set on rat [3] (group: maternal, reproductive / reproductive performance / resorptions / resorptions) it was 500 mg/kg/day; in the data set with rabbit (setting [12]), 250 mg/kg/day. The NEL with rabbit (setting [13]) was 125 mg/kg/day; in the data set with rat [4] (setting [14]), less than 500 mg/kg/day; in the data set with rat [4] (setting [15]), less than 500 mg/kg/day.

Turning to `CC[C@H](C)C(=O)O[C@H]1C[C@@H](C)C=C2C=C[C@H](C)[C@H](CC[C@@H]3C[C@@H](O)CC(=O)O3)[C@H]21` [Lovastatin], the LOAEL is more than 800 mg/kg/day in the data set on rat [5] (setting [16]), more than 800 mg/kg/day in the data set on rat [5] (setting [17]) and more than 30 mg/kg/day in the data set with mouse. The NOAEL in the data set on rat [5] (setting [16]) is not below 800 mg/kg/day; in the data set with rat [5] (setting [17]) it was not below 800 mg/kg/day; in the data set with mouse it was not below 30 mg/kg/day. Moreover, the LEL turned out to be 100 mg/kg/day in the data set with rat [5] (setting [12]), 100 mg/kg/day in the data set with rat [5] (setting [18]) and 30 mg/kg/day in the data set on mouse. For the same compound, the NEL with rat [5] (setting [12]) is less than 100 mg/kg/day; in the data set with rat [5] (setting [18]), less than 100 mg/kg/day; in the data set on mouse, less than 30 mg/kg/day.
